Results: patent US10179122B2, “Use of melatonin” (priority 2011, dated 2019)

Test system: hangover symptoms after consumption of alcoholic beverages
Test: Hangover symptoms after alcohol consumption, blinded subjects given a sublingual melatonin strip before sleep
Assay type: in vivo, human
Procedure: Subjects were blind to all the experimental treatments.
A person was fed alcoholic beverages containing ethyl alcohol until the blood alcohol concentration reached 310 mg/dL at a time of 10 pm. Next, the person drank 1 l of water and immediately after that was administered a sublingual strip comprising 2.5 mg of melatonin in non-retard form. After that the person went to sleep. […] This experiment was repeated with 20 other persons with the same effect.
For comparison, the same experiment was conducted with administration of the sublingual strip without melatonin as a placebo. 19 out of 20 persons reported severe typical hangover symptoms like headaches.

COc1ccc2[nH]cc(CCNC(C)=O)c2c1 [melatonin]
typical hangover symptoms after 8 h of physiologic sleep (one person, blood alcohol concentration 310 mg/dL at 10 pm, 1 l of water, then sublingual strip with 2.5 mg melatonin in non-retard form, assessed after 8 h sleep): did not suffer from any typical hangover symptoms | typical hangover symptoms after 8 h of physiologic sleep (experiment repeated) (repeated with 20 other persons, same protocol (310 mg/dL, 1 l of water, sublingual strip with 2.5 mg melatonin in non-retard form, 8 h sleep)): same effect
